Source: US6914045B2, “Glycopeptide antibiotics” (Wyeth Holdings Corporation, priority 2001, dated 2005)
Values after ≈ are worked out from the molar mass of the structure shown.

What was measured:
Test in all cases: in vitro antibacterial evaluation, MIC by broth dilution
Type in all cases: cell-based
Escherichia coli = conditions: 18 hours at 35° C.
In short: (§1)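 MIC, the lowest antibiotic concentration preventing growth, was read across 64-0.06 μg/mL with 5×10^5 CFU/mL inoculum. Method followed NCCLS M7-A2 broth dilution using Mueller-Hinton II; Gram-positive strains covered recent methicillin-, penicillin- and/or vancomycin-resistant clinical isolates.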

Enterococcus sp. = conditions: broth dilution, 18 hours at 35° C.
In short: as §1

Staphylococcus sp. = conditions: broth dilution, 18 hours at 35° C.
In short: as §1

Streptococcus sp. = conditions: broth dilution, 18 hours at 35° C.
In short: as §1

MIC Escherichia coli (ATCC 25922) (Escherichia coli; strain ATCC 25922): 64 µg/mL (≈ 44.7 µM)
MIC Escherichia coli (GC 4559) (Escherichia coli; strain GC 4559): 64 µg/mL (≈ 44.7 µM)
MIC Escherichia coli (GC 4560) (Escherichia coli; strain GC 4560): 8 µg/mL (≈ 5.59 µM)
MIC Enterococcus avium (GC 4558) (Enterococcus sp.; Enterococcus avium (GC 4558)): 8 µg/mL (≈ 5.59 µM)
MIC Enterococcus faecalis (ATCC 29212) (Enterococcus sp.; Enterococcus faecalis (ATCC 29212)): 8 µg/mL (≈ 5.59 µM)
MIC Enterococcus faecalis (GC 2242) (Enterococcus sp.; Enterococcus faecalis (GC 2242)): 8 µg/mL (≈ 5.59 µM)
MIC Enterococcus faecalis (GC 2691) (Enterococcus sp.; Enterococcus faecalis (GC 2691)): 8 µg/mL (≈ 5.59 µM)
MIC Enterococcus faecalis (GC 3059) (Enterococcus sp.; Enterococcus faecalis (GC 3059)): 8 µg/mL (≈ 5.59 µM)
MIC Enterococcus faecalis (GC 4552) (Enterococcus sp.; Enterococcus faecalis (GC 4552)): 8 µg/mL (≈ 5.59 µM)
MIC Enterococcus faecalis (GC 4553) (Enterococcus sp.; Enterococcus faecalis (GC 4553)): 8 µg/mL (≈ 5.59 µM)
MIC Enterococcus faecalis (GC 4554) (Enterococcus sp.; Enterococcus faecalis (GC 4554)): 8 µg/mL (≈ 5.59 µM)
MIC Enterococcus faecalis (GC 6189) (Enterococcus sp.; Enterococcus faecalis (GC 6189)): 8 µg/mL (≈ 5.59 µM)
MIC Enterococcus faecium (GC 2243) (Enterococcus sp.; Enterococcus faecium (GC 2243)): 8 µg/mL (≈ 5.59 µM)
MIC Enterococcus faecium (GC 4556) (Enterococcus sp.; Enterococcus faecium (GC 4556)): 8 µg/mL (≈ 5.59 µM)
MIC Enterococcus faecium (GC 4557) (Enterococcus sp.; Enterococcus faecium (GC 4557)): 8 µg/mL (≈ 5.59 µM)
MIC Enterococcus faecalis (ATCC 29212) (Enterococcus sp.; strain ATCC 29212): 8 µg/mL (≈ 5.59 µM)
MIC Enterococcus faecalis (GC 2242) (Enterococcus sp.; strain GC 2242): 8 µg/mL (≈ 5.59 µM)
MIC Enterococcus faecium (GC 2243) (Enterococcus sp.; strain GC 2243): 8 µg/mL (≈ 5.59 µM)
MIC Enterococcus faecalis (GC 2691) (Enterococcus sp.; strain GC 2691): 8 µg/mL (≈ 5.59 µM)
MIC Enterococcus faecalis (GC 3059) (Enterococcus sp.; strain GC 3059): 8 µg/mL (≈ 5.59 µM)
MIC Enterococcus faecalis (GC 4552) (Enterococcus sp.; strain GC 4552): 8 µg/mL (≈ 5.59 µM)
MIC Enterococcus faecalis (GC 4553) (Enterococcus sp.; strain GC 4553): 8 µg/mL (≈ 5.59 µM)
MIC Enterococcus faecalis (GC 4554) (Enterococcus sp.; strain GC 4554): 8 µg/mL (≈ 5.59 µM)
MIC Enterococcus faecium (GC 4556) (Enterococcus sp.; strain GC 4556): 8 µg/mL (≈ 5.59 µM)
MIC Enterococcus faecium (GC 4557) (Enterococcus sp.; strain GC 4557): 8 µg/mL (≈ 5.59 µM)
MIC Enterococcus avium (GC 4558) (Enterococcus sp.; strain GC 4558): 8 µg/mL (≈ 5.59 µM)
MIC Enterococcus faecalis (GC 6189) (Enterococcus sp.; strain GC 6189): 8 µg/mL (≈ 5.59 µM)
MIC Staphylococcus aureus (ATCC 29213) (Staphylococcus sp.): 8 µg/mL (≈ 5.59 µM)
MIC Staphylococcus aureus (GC 1131) (Staphylococcus sp.): 8 µg/mL (≈ 5.59 µM)
MIC Staphylococcus aureus (GC 3051) (Staphylococcus sp.): 8 µg/mL (≈ 5.59 µM)
MIC Staphylococcus aureus (GC 3053) (Staphylococcus sp.): 8 µg/mL (≈ 5.59 µM)
MIC Staphylococcus aureus (GC 4541) (Staphylococcus sp.): 8 µg/mL (≈ 5.59 µM)
MIC Staphylococcus aureus (GC 4542) (Staphylococcus sp.): 8 µg/mL (≈ 5.59 µM)
MIC Staphylococcus aureus (GC 4544) (Staphylococcus sp.): 8 µg/mL (≈ 5.59 µM)
MIC Staphylococcus aureus (GC 4545) (Staphylococcus sp.): 8 µg/mL (≈ 5.59 µM)
MIC Staphylococcus aureus (GC 1131) (Staphylococcus sp.; inoculum 5×10^5 CFU/mL, strain GC 1131): 8 µg/mL (≈ 5.59 µM)
MIC Staphylococcus aureus (ATCC 29213) (Staphylococcus sp.; strain ATCC 29213): 8 µg/mL (≈ 5.59 µM)
MIC Staphylococcus aureus (GC 3051) (Staphylococcus sp.; strain GC 3051): 8 µg/mL (≈ 5.59 µM)
MIC Staphylococcus aureus (GC 3053) (Staphylococcus sp.; strain GC 3053): 8 µg/mL (≈ 5.59 µM)
MIC Staphylococcus aureus (GC 4541) (Staphylococcus sp.; strain GC 4541): 8 µg/mL (≈ 5.59 µM)
MIC Staphylococcus aureus (GC 4542) (Staphylococcus sp.; strain GC 4542): 8 µg/mL (≈ 5.59 µM)
MIC Staphylococcus aureus-SMITH (GC 4543) (Staphylococcus sp.; strain GC 4543): 8 µg/mL (≈ 5.59 µM)
MIC Staphylococcus aureus (GC 4544) (Staphylococcus sp.; strain GC 4544): 8 µg/mL (≈ 5.59 µM)
MIC Staphylococcus aureus (GC 4545) (Staphylococcus sp.; strain GC 4545): 8 µg/mL (≈ 5.59 µM)
MIC Coagulase Negative Staphylococcus (GC 4547) (Staphylococcus sp.; strain GC 4547): 8 µg/mL (≈ 5.59 µM)
MIC Coagulase Negative Staphylococcus (GC 4548) (Staphylococcus sp.; strain GC 4548): 8 µg/mL (≈ 5.59 µM)
MIC Coagulase Negative Staphylococcus (GC 4549) (Staphylococcus sp.; strain GC 4549): 8 µg/mL (≈ 5.59 µM)
MIC Coagulase Negative Staphylococcus (GC 4551) (Staphylococcus sp.; strain GC 4551): 8 µg/mL (≈ 5.59 µM)
MIC Coagulase Negative Staphylococcus (GC 6257) (Staphylococcus sp.; strain GC 6257): 8 µg/mL (≈ 5.59 µM)
MIC Staphylococcus aureus-SMITH (GC 4543) (Staphylococcus sp.; strain SMITH GC 4543): 8 µg/mL (≈ 5.59 µM)
MIC Streptococcus agalactiae (GC 4564) (Streptococcus sp.; Streptococcus agalactiae (GC 4564)): 1 µg/mL (≈ 0.699 µM)
MIC Streptococcus pneumoniae (ATCC 6301) (Streptococcus sp.; Streptococcus pneumoniae (ATCC 6301)): <0.06 µg/mL
MIC Streptococcus pneumoniae (GC 1894) (Streptococcus sp.; Streptococcus pneumoniae (GC 1894)): <0.06 µg/mL
MIC Streptococcus pneumoniae (GC 4565) (Streptococcus sp.; Streptococcus pneumoniae (GC 4565)): <0.06 µg/mL
MIC Streptococcus pyogenes (GC 4563) (Streptococcus sp.; Streptococcus pyogenes (GC 4563)): 0.12 µg/mL (≈ 0.0838 µM)
MIC Streptococcus pneumoniae (ATCC 6301) (Streptococcus sp.; strain ATCC 6301): <0.06 µg/mL
MIC Streptococcus pneumoniae (GC 1894) (Streptococcus sp.; strain GC 1894): <0.06 µg/mL
MIC Streptococcus pyogenes (GC 4563) (Streptococcus sp.; strain GC 4563): 0.12 µg/mL (≈ 0.0838 µM)
MIC Streptococcus agalactiae (GC 4564) (Streptococcus sp.; strain GC 4564): 1 µg/mL (≈ 0.699 µM)
MIC Streptococcus pneumoniae (GC 4565) (Streptococcus sp.; strain GC 4565): <0.06 µg/mL
Structure (SMILES): CC(C)=CCCC(C)CC1OCC2OC(OC3C(CO)OC(Oc4ccc(CC5NC(=O)C(C(C)c6ccccc6)NC(=O)CNC(=O)C(CO)NC(=O)C(C(O)C6CNC(=N)N6C6OC(CO)C(O)C(O)C6O)NC(=O)C(C(O)C6CNC(=N)N6)NC5=O)cc4)C(O)C3O)C(O)C(O)C2O1 (stereo not shown) [Example 126]
MIC Staphylococcus haemolyticus (GC 4546) (Staphylococcus sp.; strain GC 4546): 8 µg/mL (≈ 5.59 µM)
